Test results taken from US20230233615A1, “PHARMACEUTICAL COMPOSITION FOR TREATING ALZHEIMER'S DISEASE” (Gwo Xi Stem Cell Applied Technology Co., Ltd., priority 2022, published 2023).

Experiments:
IL-1β = test: Inhibition on NLRP3 by EVs, IL-1β in BV2 microglia cell line; assay type: cell-based; settings: BV2 cells, LPS + ATP, 48 hours, 100 mM of mefenamic acid
Protocol: (§1) In order to investigate anti-inflammatory and NLR family pyrindomain containing 3 (NLRP3) inflammasome inhibitory effects of ADSC-derived EVs, a study was performed using a BV2 microglia cell line (hereinafter referred to as BV2 cells). BV2 cells were initiated with 100 ng/ml of LPS and 5 mM of ATP, and 100 mM of mefenamic acid (a positive control group) or a low dose of ADSC-derived EVs (2×10^5 particles/cell) or a high dose of ADSC-derived EVs (2×10^6 particles/cell) in a humidified environment with 5%CO2 at 37° C. for 48 hours.

IL-18 = test: Inhibition on NLRP3 by EVs, IL-18 in BV2 microglia cell line; assay type: cell-based; settings: BV2 cells, LPS + ATP, 48 hours, 100 mM of mefenamic acid
Protocol: as §1

SMILES: Cc1cccc(Nc2ccccc2C(=O)O)c1C [mefenamic acid]
- inhibited expression of IL-1β (compared to PBS group) (IL-1β; first stated set): 35.4%
- inhibited expression of IL-1β (compared to PBS group) (IL-1β; second stated set): 69.5%
- inhibited expression of IL-18 (compared to PBS group) (IL-18; first stated set): 29.2%
- expression of IL-18 (compared to PBS group) (IL-18; second stated set): no significant change
